Source: ChEMBL document CHEMBL1133474, “Role of hydrophobic interactions in binding S-(N-aryl/alkyl-N-hydroxycarbamoyl)glutathiones to the active site of the antitumor target enzyme glyoxalase I” (J Med Chem, 2000)

Target: Lactoylglutathione lyase (Homo sapiens, UniProt Q04760)
Assay: Binding affinity for Glyoxalase I

Chain of Lactoylglutathione lyase (Q04760 whole entry): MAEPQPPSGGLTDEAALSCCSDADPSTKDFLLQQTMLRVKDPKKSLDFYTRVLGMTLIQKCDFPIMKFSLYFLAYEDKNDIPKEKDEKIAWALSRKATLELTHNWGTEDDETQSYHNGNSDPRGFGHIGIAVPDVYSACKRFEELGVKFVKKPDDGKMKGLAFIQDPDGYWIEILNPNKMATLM

Ki [nM] | Compound
800 | CCCN(O)C(=O)SC[C@H](NC(=O)CC[C@H](N)C(=O)O)C(=O)NCC(=O)O
180 | CCCCN(O)C(=O)SC[C@H](NC(=O)CC[C@H](N)C(=O)O)C(=O)NCC(=O)O
170 | CCCCCN(O)C(=O)SC[C@H](NC(=O)CC[C@H](N)C(=O)O)C(=O)NCC(=O)O
16 | CCCCCCN(O)C(=O)SC[C@H](NC(=O)CC[C@H](N)C(=O)O)C(=O)NCC(=O)O

The remaining lines, values behind:

Compound | Ki [nM]
CN(O)C(=O)SC[C@H](NC(=O)CC[C@H](N)C(=O)O)C(=O)NCC(=O)O | 1700
N[C@@H](CCC(=O)N[C@@H](CSC(=O)NO)C(=O)NCC(=O)O)C(=O)O | 183000
CCN(O)C(=O)SC[C@H](NC(=O)CC[C@H](N)C(=O)O)C(=O)NCC(=O)O | 1180
CCCCCCCN(O)C(=O)SC[C@H](NC(=O)CC[C@H](N)C(=O)O)C(=O)NCC(=O)O | 18
